Test system: 997726-040-R-J2-PDC tumor spheroids, viability
Assay: Anticancer human tumor 997726-040-R-J2-PDC patient-derived squamous cell lung carcinoma cell line growth inhibition [PI3K]
Conditions: spheroids with HUVEC and MSC; for IC50: curve of first compound; for viability, T/C: stronger effect = lower value
Summary of the method: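 Targeted small molecules plus PI3K inhibitors, half-log dose series from Cmax (default top 10 microM), were applied to heterotypic spheroids of cancer cells with HUVEC and MSCs. Viability indicated growth inhibition.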

[1] = second compound 0.0316 µM, first compound 0.0316 µM
[2] = second compound 0.0316 µM, first compound 0.1 µM
[3] = second compound 0.0316 µM, first compound 0.316 µM
[4] = second compound 0.0316 µM, first compound 1 µM
[5] = second compound 0.0316 µM, first compound 3.16 µM
[6] = second compound 0.0316 µM, first compound 10 µM
[7] = second compound 0.1 µM, first compound 0.0316 µM
[8] = second compound 0.1 µM, first compound 0.1 µM
[9] = second compound 0.1 µM, first compound 0.316 µM
[10] = second compound 0.1 µM, first compound 1 µM
[11] = second compound 0.1 µM, first compound 3.16 µM
[12] = second compound 0.1 µM, first compound 10 µM
[13] = second compound 0.316 µM, first compound 0.0316 µM
[14] = second compound 0.316 µM, first compound 0.1 µM
[15] = second compound 0.316 µM, first compound 0.316 µM
[16] = second compound 0.316 µM, first compound 1 µM
[17] = second compound 0.316 µM, first compound 3.16 µM
[18] = second compound 0.316 µM, first compound 10 µM
[19] = second compound 1 µM, first compound 0.0316 µM
[20] = second compound 1 µM, first compound 0.1 µM
[21] = second compound 1 µM, first compound 0.316 µM
[22] = second compound 1 µM, first compound 1 µM
[23] = second compound 1 µM, first compound 3.16 µM
[24] = second compound 1 µM, first compound 10 µM
[25] = second compound 3.16 µM, first compound 0.0316 µM
[26] = second compound 3.16 µM, first compound 0.1 µM
[27] = second compound 3.16 µM, first compound 0.316 µM
[28] = second compound 3.16 µM, first compound 1 µM
[29] = second compound 3.16 µM, first compound 3.16 µM
[30] = second compound 3.16 µM, first compound 10 µM
[31] = second compound 10 µM, first compound 0.0316 µM
[32] = second compound 10 µM, first compound 0.1 µM
[33] = second compound 10 µM, first compound 0.316 µM
[34] = second compound 10 µM, first compound 1 µM
[35] = second compound 10 µM, first compound 3.16 µM
[36] = second compound 10 µM, first compound 10 µM
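Note: spheroids exposed to compounds for seven days before readout.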

With `CC1(C)CCC(CN2CCN(c3ccc(C(=O)NS(=O)(=O)c4ccc(NCC5CCOCC5)c([N+](=O)[O-])c4)c(Oc4cnc5[nH]ccc5c4)c3)CC2)=C(c2ccc(Cl)cc2)C1` + Cc1nc(NC(=O)N2CCCC2C(N)=O)sc1-c1ccnc(C(C)(C)C(F)(F)F)c1 the IC50 (second compound 0.0316 µM) was 6.13 µM, the IC50 (second compound 0.1 µM) was 5.14 µM and the IC50 (second compound 0.316 µM) was 2.49 µM. It also gave an IC50 (second compound 1 µM) of under 0.0316 µM, an IC50 (second compound 3.16 µM) of under 0.0316 µM and an IC50 (second compound 10 µM) of under 0.0316 µM. The viability, T/C [1] was 84.2%, the viability, T/C [2] was 90.8% and the viability, T/C [3] was 86.1%. It also gave a viability, T/C [4] of 91.3%, a viability, T/C [5] of 76% and a viability, T/C [6] of 30.9%. For the same molecule, the viability, T/C [7] was 73%, the viability, T/C [8] was 71.8% and the viability, T/C [9] was 74.9%. The viability, T/C [10] was 75.5%, the viability, T/C [11] was 67.4% and the viability, T/C [12] was 25.7%. For the same molecule, the viability, T/C [13] was 58.3%, the viability, T/C [14] was 58.6% and the viability, T/C [15] was 56.2%. For the same molecule, the viability, T/C [16] was 53.6%, the viability, T/C [17] was 49.5% and the viability, T/C [18] was 25.6%. It also gave a viability, T/C [19] of 48.9%, a viability, T/C [20] of 41% and a viability, T/C [21] of 39%. For the same molecule, the viability, T/C [22] was 39.5%, the viability, T/C [23] was 39.2% and the viability, T/C [24] was 11.1%. The viability, T/C [25] was 25%, the viability, T/C [26] was 28.1% and the viability, T/C [27] was 27.2%. It also gave a viability, T/C [28] of 26.2%, a viability, T/C [29] of 24.5% and a viability, T/C [30] of 8.65%. It also gave a viability, T/C [31] of 14.8%, a viability, T/C [32] of 10.8% and a viability, T/C [33] of 7.16%. The viability, T/C [34] was 6.93%, the viability, T/C [35] was 5.25% and the viability, T/C [36] was 2.97%.
With `CCCS(=O)(=O)Nc1ccc(F)c(C(=O)c2c[nH]c3ncc(-c4ccc(Cl)cc4)cc23)c1F` + Cc1nc(NC(=O)N2CCCC2C(N)=O)sc1-c1ccnc(C(C)(C)C(F)(F)F)c1 the IC50 (second compound 0.0316 µM) was 6.89 µM, the IC50 (second compound 0.1 µM) was 6 µM and the IC50 (second compound 0.316 µM) was 4.66 µM. For the same molecule, the IC50 (second compound 1 µM) was 0.0316 µM, the IC50 (second compound 3.16 µM) was under 0.0316 µM and the IC50 (second compound 10 µM) was under 0.0316 µM. The viability, T/C [1] was 88.6%, the viability, T/C [2] was 93.5% and the viability, T/C [3] was 103%. It also gave a viability, T/C [4] of 122%, a viability, T/C [5] of 103% and a viability, T/C [6] of 25%. The viability, T/C [7] was 76.4%, the viability, T/C [8] was 80.5% and the viability, T/C [9] was 80.5%. It also gave a viability, T/C [10] of 95.7%, a viability, T/C [11] of 88.4% and a viability, T/C [12] of 22.6%. It also gave a viability, T/C [13] of 55.6%, a viability, T/C [14] of 62.3% and a viability, T/C [15] of 69.8%. For the same molecule, the viability, T/C [16] was 63.7%, the viability, T/C [17] was 66.9% and the viability, T/C [18] was 23.3%. For the same molecule, the viability, T/C [19] was 41.9%, the viability, T/C [20] was 40.5% and the viability, T/C [21] was 48.3%. It also gave a viability, T/C [22] of 57.1%, a viability, T/C [23] of 52% and a viability, T/C [24] of 18.1%. It also gave a viability, T/C [25] of 29.2%, a viability, T/C [26] of 31.4% and a viability, T/C [27] of 31.7%. The viability, T/C [28] was 34.7%, the viability, T/C [29] was 31.1% and the viability, T/C [30] was 17.9%. The viability, T/C [31] was 16.4%, the viability, T/C [32] was 16.9% and the viability, T/C [33] was 13.8%. It also gave a viability, T/C [34] of 17.1%, a viability, T/C [35] of 11.9% and a viability, T/C [36] of 7.69%.
